Assay results reported in US20050250793A1, “Preventives/remedies for hot flash” (priority 2002, published 2005).
Where a name gives a salt, the structure may show the parent alone.

Assays:
[1] = Administration to premenopausal healthy females for 14 days; type: in vivo, human; conditions: 32 premenopausal healthy females (20 to 45 years old), 1 to 25 mg/day for 14 days
Procedure: To 32 premenopausal healthy females (20 years old to 45 years old), 1 to 25 mg/day of the compound of Reference Example 7 was administered for 14 days. As a result, the serum estradiol concentration was reduced, but hot flash was not observed.

[2] = target: T1, rat GnRH receptor (Rattus norvegicus, UniProt P30969); assay: 125I-leuprorelin binding inhibition, rat anterior pituitary membrane fraction; conditions: 1 μM compound, 4° C., 90 minutes, read-out: Binding inhibiting rate (%) Rat (1 μM)
T1 construct: Anterior pituitaries were removed from 40 Whister rats (8 weeks old, male); from tissue; host or cells: rat anterior pituitary membrane fraction
T1 sequence (P30969 1-327): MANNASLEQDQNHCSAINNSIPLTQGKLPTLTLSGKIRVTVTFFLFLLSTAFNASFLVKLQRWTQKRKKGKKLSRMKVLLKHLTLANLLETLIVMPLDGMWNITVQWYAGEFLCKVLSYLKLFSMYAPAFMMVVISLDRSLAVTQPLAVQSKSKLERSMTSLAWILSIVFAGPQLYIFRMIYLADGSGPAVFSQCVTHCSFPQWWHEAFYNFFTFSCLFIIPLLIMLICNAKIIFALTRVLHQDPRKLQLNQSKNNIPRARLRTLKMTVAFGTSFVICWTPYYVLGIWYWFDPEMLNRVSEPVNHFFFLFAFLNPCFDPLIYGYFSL

hot flash [1]	inhibition at 1 µM [2] [%]	SMILES	serum estradiol concentration [1]
not observed	–	CONC(=O)Nc1ccc(-c2sc3c(c2CN(C)Cc2ccccc2)c(=O)n(-c2ccccc2)c(=O)n3Cc2c(F)cccc2F)cc1 [Reference Example 7, 5-(N-benzyl-N-methylaminomethyl)-1-(2,6-difluorobenzyl)-6-[4-(3-methoxyureido)phenyl]-3-phenylthieno[2,3-d]pyrimidine-2,4(1H, 3H)-dione]	reduced
–	27	CONC(=O)Nc1ccc(-c2sc3c(c2CN(C)Cc2ccccc2)c(=O)n(-c2ccccc2)c(=O)n3Cc2c(F)cccc2F)cc1 [Reference Example 8, 5-(N-benzyl-N-methylaminomethyl)-1-(2,6-difluorobenzyl)-6-[4-(3-methoxyureido)phenyl]-3-phenylthieno[2,3-d]pyrimidine-2,4(1H, 3H)-dione hydrochloride]	–
